PMC6979384, “Characterization of the plant homeodomain (PHD) reader family for their histone tail interactions” (Epigenetics & Chromatin, 2020)

Assays:
Test in all cases: Histone peptide microarray
Type in all cases: binding, human
PHF23 = settings: GST-tagged PHF23; sheet Array Heatmap; each array performed twice, total n = 4
Method in brief: (§1)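 Each reader, produced as a GST fusion and purified, was tested at 0.5 μM on synthetic histone peptides (293 in total) carrying single or combinatorial marks. Intensities averaged over four replicates.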

KDM5A (3) = settings: GST-tagged KDM5A (3); sheet Array Heatmap; each array performed twice, total n = 4
Method in brief: as §1

KDM5B (1) = settings: GST-tagged KDM5B (1); sheet Array Heatmap; each array performed twice, total n = 4
Method in brief: as §1

DPF2 (PPC2W2) = settings: GST-tagged DPF2 (PPC2W2 = Dual PHD + C2W2-type Zn-finger); sheet Array Heatmap; each array performed twice, total n = 4
Method in brief: as §1

TAF3 = settings: GST-tagged TAF3; sheet Array Heatmap; each array performed twice, total n = 4
Method in brief: as §1

ING4 = settings: GST-tagged ING4; sheet Array Heatmap; each array performed twice, total n = 4
Method in brief: as §1

ING1 = settings: GST-tagged ING1; sheet Array Heatmap; each array performed twice, total n = 4
Method in brief: as §1

DIDO1 = settings: GST-tagged DIDO1; sheet Array Heatmap; each array performed twice, total n = 4
Method in brief: as §1

PHF13 = settings: GST-tagged PHF13; sheet Array Heatmap; each array performed twice, total n = 4
Method in brief: as §1

CHD5 (PPCC) = settings: GST-tagged CHD5 (PPCC = Dual PHD + Dual Chromodomain); sheet Array Heatmap; each array performed twice, total n = 4
Method in brief: as §1

TRIM66 (PB) = settings: GST-tagged TRIM66 (PB = PHD + Bromodomain); sheet Array Heatmap; each array performed twice, total n = 4
Method in brief: as §1

PHF8 = settings: GST-tagged PHF8; sheet Array Heatmap; each array performed twice, total n = 4
Method in brief: as §1

RAG2 = settings: GST-tagged RAG2; sheet Array Heatmap; each array performed twice, total n = 4
Method in brief: as §1

CHD4 (PPCC) = settings: GST-tagged CHD4 (PPCC = Dual PHD + Dual Chromodomain); sheet Array Heatmap; each array performed twice, total n = 4
Method in brief: as §1

PHF21A = settings: GST-tagged PHF21A; sheet Array Heatmap; each array performed twice, total n = 4
Method in brief: as §1

KDM5A (1) = settings: GST-tagged KDM5A (1); sheet Array Heatmap; each array performed twice, total n = 4
Method in brief: as §1

BAZ2B = settings: GST-tagged BAZ2B; sheet Array Heatmap; each array performed twice, total n = 4
Method in brief: as §1

ING3 = settings: GST-tagged ING3; sheet Array Heatmap; each array performed twice, total n = 4
Method in brief: as §1

ING2 = settings: GST-tagged ING2; sheet Array Heatmap; each array performed twice, total n = 4
Method in brief: as §1

CHD5 (PCC) = settings: GST-tagged CHD5 (PCC = PHD + Dual Chromodomain); sheet Array Heatmap; each array performed twice, total n = 4
Method in brief: as §1

ING5 = settings: GST-tagged ING5; sheet Array Heatmap; each array performed twice, total n = 4
Method in brief: as §1

PHRF1 (RP) = settings: GST-tagged PHRF1 (RP); sheet Array Heatmap; each array performed twice, total n = 4
Method in brief: as §1

AIRE (PP) = settings: GST-tagged AIRE (PP); sheet Array Heatmap; each array performed twice, total n = 4
Method in brief: as §1

KDM5B (3) = settings: GST-tagged KDM5B (3); sheet Array Heatmap; each array performed twice, total n = 4
Method in brief: as §1

KDM7A = settings: GST-tagged KDM7A; sheet Array Heatmap; each array performed twice, total n = 4
Method in brief: as §1

BPTF (PB) = settings: GST-tagged BPTF (PB = PHD + Bromodomain); sheet Array Heatmap; each array performed twice, total n = 4
Method in brief: as §1

KDM4C (TTP) = settings: GST-tagged KDM4C (TTP = Tandem Tudor domain + PHD); sheet Array Heatmap; each array performed twice, total n = 4
Method in brief: as §1

MORC3 (CW) = settings: GST-tagged MORC3 (CW = CW-type Zn-finger); sheet Array Heatmap; each array performed twice, total n = 4
Method in brief: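 GST-tagged PHD readers, 0.5 μM, probed on a microarray of 293 synthetic histone peptides carrying single or combinatorial PTMs (optimized Petell protocol). Signals are averaged over 4 replicates and expressed as relative binding.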

PHF2 = settings: GST-tagged PHF2; sheet Array Heatmap; each array performed twice, total n = 4
Method in brief: as §1

SP140L = settings: GST-tagged SP140L; sheet Array Heatmap; each array performed twice, total n = 4
Method in brief: as §1

MLL5 = settings: GST-tagged MLL5; sheet Array Heatmap; each array performed twice, total n = 4
Method in brief: as §1

**Q.** Which “Array Heatmap signal (histone peptide microarray)” value (“Array Heatmap signal” below) (PHF23) does the source give for H3K18ac: H3 1-20 [Peptide H3K18ac] here?
**A.** Its value is 0.5309.

**Q.** And the “Array Heatmap signal” value (KDM5A (3))?
**A.** Its value is 0.7024.

**Q.** What about the “Array Heatmap signal” value (KDM5B (1)) of the same substance?
**A.** The value was 0.7147.

**Q.** And the “Array Heatmap signal” value (DPF2 (PPC2W2))?
**A.** Its value is 0.8135.

**Q.** And the “Array Heatmap signal” value (TAF3)?
**A.** Its value is 0.3122.

**Q.** And the “Array Heatmap signal” value (ING4)?
**A.** Its value is 0.4378.

**Q.** And the “Array Heatmap signal” value (ING1)?
**A.** Its value is 0.5131.

**Q.** And the “Array Heatmap signal” value (DIDO1)?
**A.** The value was 0.6541.

**Q.** What about the “Array Heatmap signal” value (PHF13) of the same substance?
**A.** The value was 0.6049.

**Q.** And the “Array Heatmap signal” value (CHD5 (PPCC))?
**A.** Its value is 0.5749.

**Q.** What about the “Array Heatmap signal” value (TRIM66 (PB)) of the same substance?
**A.** The value was 0.7719.

**Q.** What about the “Array Heatmap signal” value (PHF8) of the same substance?
**A.** Its value is 0.3469.

**Q.** What about the “Array Heatmap signal” value (RAG2) of the same substance?
**A.** The value was 0.2722.

**Q.** And the “Array Heatmap signal” value (CHD4 (PPCC))?
**A.** Its value is 0.5741.

**Q.** What about the “Array Heatmap signal” value (PHF21A) of the same substance?
**A.** The value was 0.4738.

**Q.** And the “Array Heatmap signal” value (KDM5A (1))?
**A.** Its value is 0.495.

**Q.** What about the “Array Heatmap signal” value (BAZ2B) of the same substance?
**A.** Its value is 0.4617.

**Q.** What about the “Array Heatmap signal” value (ING3) of the same substance?
**A.** Its value is 0.4594.

**Q.** What about the “Array Heatmap signal” value (ING2) of the same substance?
**A.** Its value is 0.5886.

**Q.** And the “Array Heatmap signal” value (CHD5 (PCC))?
**A.** The value was 0.8176.

**Q.** What about the “Array Heatmap signal” value (ING5) of the same substance?
**A.** Its value is 0.3604.

**Q.** And the “Array Heatmap signal” value (PHRF1 (RP))?
**A.** Its value is 0.9005.

**Q.** And the “Array Heatmap signal” value (AIRE (PP))?
**A.** The value was 0.6319.

**Q.** What about the “Array Heatmap signal” value (KDM5B (3)) of the same substance?
**A.** Its value is 0.5801.

**Q.** What about the “Array Heatmap signal” value (KDM7A) of the same substance?
**A.** The value was 0.36.

**Q.** And the “Array Heatmap signal” value (BPTF (PB))?
**A.** Its value is 0.3398.

**Q.** What about the “Array Heatmap signal” value (KDM4C (TTP)) of the same substance?
**A.** Its value is 0.5068.

**Q.** And the “Array Heatmap signal” value (MORC3 (CW))?
**A.** The value was 0.6663.

**Q.** And the “Array Heatmap signal” value (PHF2)?
**A.** The value was 0.5028.

**Q.** What about the “Array Heatmap signal” value (SP140L) of the same substance?
**A.** Its value is 0.3771.

**Q.** What about the “Array Heatmap signal” value (MLL5) of the same substance?
**A.** The value was 0.5221.
